Laboratory results reported in PubChem BioAssay (NCI).
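96-well plates; 48 h exposure; 5 concentrations. Endpoints by linear interpolation between flanking doses. Not reached: highest tested concentration assigned. The concentration for full growth arrest is given as TGI.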

Legend:
Test in all cases: growth of human tumour cells (NCI), 48 h
NCI-H226 lung = tested on: NCI-H226 lung
ACHN renal = tested on: ACHN renal
HOP-92 NSCLC = tested on: HOP-92 NSCLC
HCT-116 colon = tested on: HCT-116 colon
HCT-15 colon = tested on: HCT-15 colon
A498 renal = tested on: A498 renal
NCI-H460 lung = tested on: NCI-H460 lung
SF-295 CNS = tested on: SF-295 CNS
NCI-H23 lung = tested on: NCI-H23 lung
SNB-19 CNS = tested on: SNB-19 CNS
OVCAR-5 ovarian = tested on: OVCAR-5 ovarian
MDA-MB-231 breast = tested on: MDA-MB-231 breast
SK-MEL-5 melanoma = tested on: SK-MEL-5 melanoma
M14 melanoma = tested on: M14 melanoma
UACC-257 melanoma = tested on: UACC-257 melanoma
MOLT-4 leukemia = tested on: MOLT-4 leukemia
SK-OV-3 ovarian = tested on: SK-OV-3 ovarian
PC-3 prostate = tested on: PC-3 prostate
SW-620 colon = tested on: SW-620 colon
IGROV1 ovarian = tested on: IGROV1 ovarian
SR leukemia = tested on: SR leukemia
T-47D breast = tested on: T-47D breast
HCC-2998 colon = tested on: HCC-2998 colon
SK-MEL-28 melanoma = tested on: SK-MEL-28 melanoma
DU-145 prostate = tested on: DU-145 prostate
MDA-MB-435 = tested on: MDA-MB-435
SN12C renal = tested on: SN12C renal
UACC-62 melanoma = tested on: UACC-62 melanoma
HS 578T breast = tested on: HS 578T breast
RPMI-8226 leukemia = tested on: RPMI-8226 leukemia
SF-268 CNS = tested on: SF-268 CNS
A549 NSCLC = tested on: A549 NSCLC
OVCAR-3 ovarian = tested on: OVCAR-3 ovarian
KM12 colon = tested on: KM12 colon
HOP-62 NSCLC = tested on: HOP-62 NSCLC
786-0 renal = tested on: 786-0 renal
OVCAR-4 ovarian = tested on: OVCAR-4 ovarian
UO-31 renal = tested on: UO-31 renal
EKVX NSCLC = tested on: EKVX NSCLC
NCI-H522 lung = tested on: NCI-H522 lung
U251 CNS = tested on: U251 CNS
COLO 205 colon = tested on: COLO 205 colon
SK-MEL-2 melanoma = tested on: SK-MEL-2 melanoma
BT-549 breast = tested on: BT-549 breast
MALME-3M melanoma = tested on: MALME-3M melanoma
LOX IMVI melanoma = tested on: LOX IMVI melanoma
CCRF-CEM leukemia = tested on: CCRF-CEM leukemia
CAKI-1 renal = tested on: CAKI-1 renal
HT29 colon = tested on: HT29 colon
MDA-N = tested on: MDA-N
SNB-75 CNS = tested on: SNB-75 CNS

## O=C1CCCCC/C1=C\c1cccc(Cl)c1
NCI-H226 lung
  TGI: > 100 µM
ACHN renal
  TGI: > 100 µM
HOP-92 NSCLC
  TGI: > 100 µM
HCT-116 colon
  TGI: > 100 µM
HCT-15 colon
  TGI: > 100 µM
A498 renal
  TGI: > 100 µM
NCI-H460 lung
  TGI: 87.7 µM
SF-295 CNS
  TGI: 50.2 µM
NCI-H23 lung
  TGI: > 100 µM
SNB-19 CNS
  TGI: > 100 µM
OVCAR-5 ovarian
  TGI: > 100 µM
MDA-MB-231 breast
  TGI: > 100 µM
SK-MEL-5 melanoma
  TGI: > 100 µM
M14 melanoma
  TGI: > 100 µM
UACC-257 melanoma
  TGI: > 100 µM
MOLT-4 leukemia
  TGI: > 100 µM
SK-OV-3 ovarian
  TGI: > 100 µM
PC-3 prostate
  TGI: 80.4 µM
SW-620 colon
  TGI: 60.1 µM
IGROV1 ovarian
  TGI: > 100 µM
SR leukemia
  TGI: > 100 µM
T-47D breast
  TGI: > 100 µM
HCC-2998 colon
  TGI: > 100 µM
SK-MEL-28 melanoma
  TGI: > 100 µM
DU-145 prostate
  TGI: > 100 µM
MDA-MB-435
  TGI: 94.4 µM
SN12C renal
  TGI: > 100 µM
UACC-62 melanoma
  TGI: > 100 µM
HS 578T breast
  TGI: 94.3 µM
RPMI-8226 leukemia
  TGI: > 100 µM
SF-268 CNS
  TGI: 68.2 µM
A549 NSCLC
  TGI: > 100 µM
OVCAR-3 ovarian
  TGI: > 100 µM
KM12 colon
  TGI: > 100 µM
HOP-62 NSCLC
  TGI: > 100 µM
786-0 renal
  TGI: > 100 µM
OVCAR-4 ovarian
  TGI: 83.3 µM
UO-31 renal
  TGI: > 100 µM
EKVX NSCLC
  TGI: > 100 µM
NCI-H522 lung
  TGI: > 100 µM
U251 CNS
  TGI: > 100 µM
COLO 205 colon
  TGI: > 100 µM
SK-MEL-2 melanoma
  TGI: > 100 µM
BT-549 breast
  TGI: > 100 µM
MALME-3M melanoma
  TGI: > 100 µM
LOX IMVI melanoma
  TGI: > 100 µM
CCRF-CEM leukemia
  TGI: 30.4 µM
CAKI-1 renal
  TGI: > 100 µM
HT29 colon
  TGI: > 100 µM
MDA-N
  TGI: > 100 µM
SNB-75 CNS
  TGI: > 100 µM
